Test results reported in patent US20170064957A1, “ACTIVE COMPOUND COMBINATIONS HAVING IN[…]” (BAYER CROPSCIENCE AKTIENGESELLSCHAFT, priority 2014, published 2017).

Tests used:
Assay type in all cases: in vivo
[1] = tested on: two spotted spidermite (Tetranychus urticae); test: Tetranychus urticae - spray test OP-resistant; details: French bean leaf disks
Excerpt: (§1) The expected activity for a given combination of two active compounds can be calculated according to S. R. Colby, Weeds 15 (1967), 20-22 as follows: • If • X is the kill rate, expressed in % of the untreated control, when active compound A is applied at an application rate of m g/ha or at a concentration of m ppm, • Y is the kill rate, expressed in % of the untreated control, when active compound B is applied at an application rate of n g/ha or at a concentration of n ppm and • E is the kill rate, expressed in % of the untreated control, when active compounds A and B is applied at application rates of m and n g/ha or at a concentration of m and n ppm, • then
Tetranvchus Urticae—Spray Test OP-Resistant
(§2) To produce a suitable preparation of active compound, 1 part by weight of active compound is mixed with the stated amount of solvents and is diluted with water, containing an emulsifier concentration of 1000 ppm, to the desired concentration. To produce a suitable preparation of a spore suspension the spores are diluted with emulsifier containing water to the desired concentration. Further test concentrations are prepared by dilution with emulsifier containing water.
French bean (Phaseolus vulgaris) leaf disks which are heavily infested with all stages of the two spotted spidermite (Tetranychus urticae), are sprayed with a preparation of the active ingredient of the desired concentration.
After the specified period of time, mortality in % is determined. 100% means all spider mites have been killed and 0% means none of the spider mites have been killed. The mortality values determined thus are recalculated using the Colby-formula (see sheet 1).

[2] = tested on: caterpillars of the fall army worm (Spodoptera frugiperda); test: Spodoptera frugiperda - spray test; details: 0.1 ppm, cotton leaves
Excerpt: as §1
Spodoptera frugiperda—Spray Test
(§3) Solvent: 7 parts by weight of dimethylformamide Emulsifier: alkylaryl polyglycol ether
(§4) To produce a suitable preparation of active compound, 1 part by weight of active compound is mixed with the stated amount of solvent and is diluted with water, containing an emulsifier concentration of 1000 ppm, to the desired concentration. Further test concentrations are prepared by dilution with emulsifier containing water. Ammonium salt and/or penetration enhancer in a dosage of 1000 ppm are added if necessary.
Cotton leaves (Gossypium hirsutum) are treated by being sprayed with the preparation of the active compound of the desired concentration and are infested with caterpillars of the fall army worm (Spodoptera frugiperda).
After the specified period of time mortality in % is determined. 100% means all the caterpillars have been killed and 0% means none of the caterpillars have been killed. The mortality values determined thus are recalculated using the Colby-formula (see sheet 1).

[3] = tested on: mustard beetle larvae (Phaedon cochleariae); test: Phaedon cochleariae - spray test; details: Chinese cabbage leaf disks
Excerpt: as §1
Phaedon cochleariae—Spray Test
as §2
Chinese cabbage (Brassica pekinensis) leaf disks are sprayed with a preparation of the active ingredient of the desired concentration. Once dry, the leaf disks are infested with mustard beetle larvae (Phaedon cochleariae).
After the specified period of time, mortality in % is determined. 100% means all beetle larvae have been killed and 0% means none of the beetle larvae have been killed. The mortality values determined thus are recalculated using the Colby-formula (see sheet 1).

[4] = tested on: larvae of the cotton boll worm (Heliothis armigera); test: Heliothis armigera - spray test; details: cotton plants
Excerpt: as §1
Heliothis armigera—Spray Test
as §3
as §4, with “added to the desired concentration” for “added”
Cotton plants (Gossypium hirsutum) are treated by being sprayed with the preparation of the active compound of the desired concentration and are infested with larvae of the cotton boll worm (Heliothis armigera).
After the specified period of time, the mortality in % is determined. 100% means all caterpillars have been killed; 0% means none of the caterpillars have been killed. The mortality values determined thus are recalculated using the Colby-formula (see sheet 1).

With `Cc1cc(C(F)(C(F)(F)F)C(F)(F)F)ccc1NC(=O)c1cccc(I)c1C(=O)NC(C)(C)CS(C)(=O)=O` [Flubendiamide] the “Efficacy in % after 2d” value ([1]; 0.8 g ai/ha) was 0%, the “Efficacy in % after 6d” value ([1]; 0.8 g ai/ha, 6 d) was 0% and the “Efficacy in % after 2d” value ([1]; 4 g ai/ha) was 0%. For the same compound, the “Efficacy in % after 1d” value ([2]; 1 d) was 0%, the “Efficacy in % after 2d” value ([2]; 2 d) was 0% and the “Efficacy in % after 3d” value ([2]; 3 d) was 0%.
For `CNC(=O)c1cc(C#N)cc(C)c1NC(=O)c1cc(Cn2nnc(C(F)(F)F)n2)nn1-c1ncccc1Cl` [(II-2), 1-(3-chloropyridin-2-yl)-N-[4-cyano-2-methyl-6-(methylcarbamoyl)phenyl]-3-{[5-(trifluoromethyl)-2H-tetrazol-2-yl]methyl}-1H-pyrazole-5-carboxamide], the “Efficacy in % after 6d” value ([3]; 0.0064 g ai/ha) was 0% and the “Efficacy in % after 6d” value ([3]; 0.032 g ai/ha) was 33%.
`CNC(=O)c1cc(Cl)cc(C)c1NC(=O)c1cc(Br)nn1-c1ncccc1Cl` [Chlorantraniliprole] was tested, and the “Efficacy in % after 6d” value ([3]; 0.16 g ai/ha) was 0%.
With `CNC(=O)c1cc(C#N)cc(C)c1NC(=O)c1cc(Br)nn1-c1ncccc1Cl` [Cyantraniliprole] the “Efficacy in % after 6d” value ([4]; 0.15 ppm, 6 d) was 50%.
In the case of `Cc1cc(C(F)(C(F)(F)F)C(F)(F)F)ccc1NC(=O)c1cccc(Cl)c1C(=O)NC(C)(C)C#N` [Compound of formula (II-6)], the “Efficacy in % after 2d” value ([4]; 0.1 ppm) is reported as 20%, the “Efficacy in % after 2d” value ([4]; 0.2 ppm) is reported as 50% and the “Efficacy in % after 1d” value ([4]; 0.4 ppm, 1 d) is reported as 30%. For the same compound, the “Efficacy in % after 2d” value ([4]; 0.4 ppm) was 60%.
